As a reminder, the IC50 is the point on the concentration scale where inhibition reaches its midpoint.

Assay [1] concerns the target Recombinant human CSF1R kinase (Homo sapiens (Human), UniProt P07333). The assay is described as follows: Measurement of CSF1R kinase activity at molecular level (Z-LYTE). In kind it is biochemical. To be noted: Z-LYTE Tyr 1 peptide. The procedure:
Invitrogen, PV3227; • Development reagent B: Invitrogen, PV3295; • Development buffer: Invitrogen. P3127; • Stopping solution: Invitrogen, P3094; • Recombinant human CSF1R kinase: Invitrogen, P[…]; • 384 well plate, black: Corning. 3575; • Envision: Perkin Elmer. 2. […] The test compound was diluted in gradient to 4-fold the reaction concentration and the concentration of DMSO was kept at 8%. […] The mixture was mixed gently with a pipette. • 4) A phosphorylated peptide substrate solution (PP solution): 0.4 μL of Z-LYTETM Tyr1 phosphorylated peptide substrate was added to 99.6 μl of 1.33× kinase buffer. • 5) ATP solution: 10 mM of ATP was diluted to 760 μM with 1.33× kinase buffer to prepare ATP solution. • 6) Development solution: Development reagent B was diluted with Development buffer at a ratio of 1:200. 3. […] 2.5 μL of 4× test compound was added to each reaction well of the 384 plate, and the corresponding volume of 8% DMSO was added to the control well. The plate was placed on ice. […] After adding the reaction components, the 384-well plate was sealed and incubated at 25-30° C. for 1 h in dark. 2) Development Reaction 5 μL of Development solution was added to each well, sealed and incubated at 25-30° C. for another 1 h in dark. 3) Reaction Stopping and Plate Reading 5 μL of stopping solution was added to each well. The Coumarin value (excitation at 400 nm, emission at 445 nm) and Fluorescein value (excitation at 400 nm, emission at 520 nm) were measured, respectively. 4. […] Coumarin emission read-out (445 nm)/Fluorescein emission read-out (520 nm); • C3 445 nm: 100% phosphorylated Coumarin emission read-out; • C3 520 nm: 100% phosphorylated Fluorescein emission read-out; • C1 445 nm: 0% phosphorylated Coumarin emission read-out; • C1 520 nm: 0% phosphorylated Fluorescein emission read-out. […] 5. IC50 values: calculated by using software XL-FitTM (version 5.3) supplied by ID Business Solutions (Guildford, UK), which is an additional software to Microsoft Excel.

Assay [2] has as its target CSF1R phosphorylation in THP-1 cells (Homo sapiens (Human), UniProt P07333). The assay is described as follows: Detection of CSF1R phosphorylation activity at cell level (p-CSF1R ELISA, M-CSF stimulated THP-1 cells). The conditions noted are these: THP-1 cells, M-CSF stimulation, p-CSF1R ELISA; read-out: IC50. In kind it is cell-based. The procedure: THP-1 (ATCC), human acute monocytic leukemia cells.
3. Treatment of cells and preparation of lysis buffer
5 μL. of the diluted compound was added to the 50 μL cell culture system, the culture was cultured in a 5% CO2, 37° C. cell incubator for 60 min, 300 ng/mL of M-CSF was added to the cells, and the mixture was stimulated in the 37° C. cell incubator for 1 min, added 50 μL of cell lysis buffer, and stored in a refrigerator at −80° C.
100 μL/well of the p-CSF1R capture antibody diluted to 0.8 μg/mL with PBS was added to the ELISA plate, and the plate was coated on a shaker at room temperature overnight. The culture was washed with PBST, and then added blocking solution and incubated at room temperature for 2 h. The culture was washed with PBST, added 90 μL of cell lysis buffer, and incubated on a shaker at 25° C. for 2 h. The plate was washed with PBST three times, added 100 μL of anti-p-tyrosine-HRP detection antibody diluted with 0.1% PBS-BSA diluent, and incubated on a shaker at 25° C. for 2 h. The plate was washed with PBST washing liquid, added 100 μL of chromogenic substrate and incubated at room temperature for 10-20 min. The reaction was stopped by adding 50 μL of 2N H2SO4. The optical density signal (450/570 nm) of each well was detected in Labsystems Multiskan K3 or Envision.
wherein • Drug-treated well read-out: indicating the optical density signal of a cell well with the test compound treatment. • Background read-out: indicating the optical density signal of a well without cells but with cell lysis buffer. • Cell well read-out: indicating the optical density signal of a cell well not treated with the compound.
6. Calculation of IC50: obtained by using XL-Fit 5.3 software, […]
In general terms: In an ELISA, binding on a coated surface is turned into a signal by an enzyme label.

Sequence of Recombinant human CSF1R kinase (P07333 20-972): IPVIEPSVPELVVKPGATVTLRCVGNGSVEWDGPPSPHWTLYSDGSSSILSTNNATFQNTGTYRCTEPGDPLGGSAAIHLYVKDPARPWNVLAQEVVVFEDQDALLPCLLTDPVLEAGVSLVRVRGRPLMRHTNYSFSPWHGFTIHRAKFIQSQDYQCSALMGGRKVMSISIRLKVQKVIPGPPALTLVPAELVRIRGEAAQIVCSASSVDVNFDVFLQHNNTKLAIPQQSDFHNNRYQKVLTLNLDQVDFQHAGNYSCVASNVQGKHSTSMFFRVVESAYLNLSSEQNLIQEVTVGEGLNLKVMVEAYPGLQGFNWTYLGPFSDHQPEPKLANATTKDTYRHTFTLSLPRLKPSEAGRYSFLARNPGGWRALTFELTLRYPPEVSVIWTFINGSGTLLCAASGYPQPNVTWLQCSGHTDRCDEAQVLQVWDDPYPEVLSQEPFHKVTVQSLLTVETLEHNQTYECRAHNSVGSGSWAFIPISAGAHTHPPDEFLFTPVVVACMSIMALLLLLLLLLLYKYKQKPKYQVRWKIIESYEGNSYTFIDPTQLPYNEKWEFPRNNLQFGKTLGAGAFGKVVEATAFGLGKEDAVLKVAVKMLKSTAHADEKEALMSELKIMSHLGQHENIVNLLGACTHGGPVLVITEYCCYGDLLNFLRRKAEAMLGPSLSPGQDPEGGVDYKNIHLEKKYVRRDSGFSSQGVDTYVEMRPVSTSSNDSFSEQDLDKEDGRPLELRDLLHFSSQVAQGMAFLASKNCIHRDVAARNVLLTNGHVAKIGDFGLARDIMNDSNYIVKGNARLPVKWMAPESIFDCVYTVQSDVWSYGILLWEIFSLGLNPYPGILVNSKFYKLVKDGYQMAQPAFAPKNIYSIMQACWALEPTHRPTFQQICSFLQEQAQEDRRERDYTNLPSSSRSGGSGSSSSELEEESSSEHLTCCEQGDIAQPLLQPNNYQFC
Sequence of CSF1R phosphorylation in THP-1 cells (P07333 20-972): as above

As to `COc1cc(Oc2ccc3ncccc3c2)cnc1OCc1ccc(C2CC2)cc1` [Compound 18], the IC50 in assay [1] was determined as 33 nM; in assay [2], 5 nM.

As to `COc1ccc(COc2ncc(Oc3ccc4ncc(C)c(=O)n4c3)cc2OC)cc1` [Compound 6], the IC50 is 7 nM in assay [1] and 4 nM in assay [2].

Consider `COc1cc(Cc2ccnc(-c3cnn(C)c3)c2)cnc1OCc1ccc(C2CC2)cc1` [Compound 46, 2-((4-cyclopropylbenzyl)oxy)-3-methoxy-5-((2-(1-methyl-1H-pyrazol-4-yl)pyridin-4-yl)methyl)pyridine], for which the IC50 in assay [1] is 28 nM; in assay [2], 5 nM.

As for `O=c1ccnc2ccc(Oc3cnc4c(c3)OCC(c3ccc(C5CC5)cc3)O4)cn12` (racemic) [Compound 56, (R/S)-7-((3-(4-cyclopropylphenyl)-2,3-dihydro-[1,4]dioxino[2,3-b]pyridin-7-yl)oxy)-4H-pyrido[1,2-a]pyrimidin-4-one], the results for the IC50 in assay [1] and in assay [2] were 12 nM and 14 nM, respectively.

`COc1cc(Oc2ccc3ncc(C)c(=O)n3c2)cnc1OCc1ccc(-n2cccn2)cc1` [Compound 23]: the 50% inhibitory concentration (IC50) in assay [1] stood at 5 nM; in assay [2], 129 nM.

Consider `COc1ccc([C@H]2COc3cc(Oc4ccc5nccc(=O)n5c4)cnc3O2)cc1` [Compound 64], for which the IC50 was determined as 10 nM in assay [1] and 42 nM in assay [2].

Regarding `COc1cc(Oc2ccc3ncc(C)c(=O)n3c2)cnc1OCc1ccc(C(C)C)cc1` [Compound 8], the IC50 came to 67 nM in assay [1] and 29 nM in assay [2].

For `Cn1cc(-c2cc(Oc3cnc4c(c3)O[C@H](c3ccc(C5CC5)cc3)CO4)ccn2)cn1` (single isomer, unassigned) [Compound 50, (R/S)-2-(4-cyclopropylphenyl)-7-((2-(1-methyl-1H-pyrazol-4-yl)pyridin-4-yl)oxy)-2,3-dihydro-[1,4]dioxino[2,3-b]pyridine], the concentration for half-maximal inhibition (IC50) in assay [1] is 73 nM; in assay [2], 197 nM.

For the molecule `COc1ccc([C@H]2COc3cc(Oc4ccc5ncc(C)c(=O)n5c4)cnc3O2)cn1` [Compound 84], the IC50 turned out to be 8 nM in assay [1] and 84 nM in assay [2].

Consider `COc1ccc([C@H]2COc3cc(Oc4ccc5ncc(C)c(=O)n5c4)cnc3O2)nc1` [Compound 79], for which the IC50 in assay [1] was 30 nM; in assay [2], 182 nM.

On to `Cc1cnc2ccc(Oc3cnc4c(c3)OC[C@H](c3ccc(C5CC5)cc3)O4)cn2c1=O` [Compound 58], for which the 50% inhibitory concentration (IC50) stood at 12 nM in assay [1] and 26 nM in assay [2].

Turning to `COc1cc(Oc2ccc3ncc(C)c(=O)n3c2)cnc1OCc1ccccc1` [Compound 43], the values for the IC50 in assay [1] and in assay [2] were 4 nM and 54 nM, respectively.

`COc1ccc([C@@H]2COc3cc(Oc4ccnc(-c5cnn(C)c5)c4)cnc3O2)cc1` [Compound 67]: the IC50 in assay [1] was determined as 5 nM; in assay [2], 16 nM.

As to `COc1ccc(COc2ncc(Oc3ccc4ncc(C)c(=O)n4c3)cn2)cc1` [Compound 29], the IC50 in assay [1] turned out to be 6 nM; in assay [2], 23 nM.

Consider `COc1ccc(COc2ncc(Oc3ccc4ncc(N)c(=O)n4c3)cc2OC)cc1` [Compound 32], for which the IC50 in assay [1] came to 3 nM; in assay [2], 4 nM.

In the case of `COc1cc(Oc2ccc3ncc(C)c(=O)n3c2)cnc1OCc1ccc(C)cc1` [Compound 44], the IC50 in assay [1] is 4 nM; in assay [2] it was 19 nM.

As for `COc1cc(Oc2ccc3ncc(C)c(=O)n3c2)cnc1OCc1ccc(C2CC2)cc1F` [Compound 11], the results for the IC50 in assay [1] and in assay [2] were 61 nM and 164 nM, respectively.

On to `COc1ccc([C@@H]2COc3cc(Oc4ccc5nccc(=O)n5c4)cnc3O2)nc1` [Compound 78], for which the IC50 in assay [1] is 26 nM; in assay [2], 64 nM.

For the molecule `COc1cc(Oc2ccc3ncc(C)c(=O)n3c2)cnc1OCc1ccc(C2CC2F)cc1` (stereo not shown) [Compound 13], the values for the IC50 in assay [1] and in assay [2] were 8 nM and 17 nM, respectively.

Consider `OCCn1cc(-c2cc(Oc3cnc4c(c3)OCC(c3ccc(C5CC5)cc3)O4)ccn2)cn1` (stereo not shown) [Compound 52, 2-(4-(4-((3-(4-cyclopropylphenyl)-2,3-dihydro-[1,4]dioxino[2,3-b]pyridin-7-yl)oxy)pyridin-2-yl)-1H-pyrazol-1-yl)ethan-1-ol], for which the half-inhibitory concentration (IC50) is 19 nM in assay [1] and 34 nM in assay [2].

For the molecule `Cc1cnc2ccc(Oc3cnc(OCc4ccc(Cl)cc4)nc3)cn2c1=O` [Compound 41], the IC50 in assay [1] was 23 nM; in assay [2], 551 nM.

Consider `COc1cc(Oc2ccc3ncc(N)c(=O)n3c2)cnc1OCc1ccc(-n2cccn2)cc1` [Compound 24], for which the IC50 was 3 nM in assay [1] and 34 nM in assay [2].

Regarding `Cn1cc(-c2cc(Oc3cnc4c(c3)OCC(c3ccc(C5CC5)nc3)O4)ccn2)cn1` (racemic) [Compound 54, (R/S)-3-(6-cyclopropylpyridin-3-yl)-7-((2-(1-methyl-1H-pyrazol-4-yl)pyridin-4-yl)oxy)-2,3-dihydro-[1,4]dioxino[2,3-b]pyridine], the IC50 was found to be 2 nM in assay [1] and 22 nM in assay [2].

For `Cn1cc(-c2cc(Oc3cnc4c(c3)OCC(c3ccc(C5CC5)cc3)O4)ccn2)cn1` (racemic) [Compound 51, (R/S)-3-(4-cyclopropylphenyl)-7-((2-(1-methyl-1H-pyrazol-4-yl)pyridin-4-yl)oxy)-2,3-dihydro-[1,4]dioxino[2,3-b]pyridine], the IC50 in assay [1] worked out at 8 nM; in assay [2] it was 6 nM.

Turning to `COc1cc(Oc2ccc3ncc(C)c(=O)n3c2)cnc1OCCc1ccccc1` [Compound 40], the IC50 was determined as 33 nM in assay [1] and 190 nM in assay [2].

In the case of `Cc1cnc2ccc(Oc3cnc4c(c3)OC[C@@H](c3ccc(C5CC5)cc3)O4)cn2c1=O` [Compound 57], the IC50 in assay [1] is 15 nM; in assay [2] it was 16 nM.

As to `Cn1cc(-c2cc(Oc3cnc4c(c3)OC[C@@H](c3ccc(C5CC5)cn3)O4)ccn2)cn1` [Compound 74], the IC50 in assay [1] came to 5 nM; in assay [2] it was 9 nM.

For the molecule `COc1cc(Oc2ccnc(-c3cnn(C)c3)c2)cnc1OCc1ccc(C2CC2)cc1` [Compound 12], the concentration for half-maximal inhibition (IC50) in assay [1] was found to be 13 nM; in assay [2], 5 nM.

Turning to `COc1ccc([C@@H]2COc3cc(Oc4ccc5ncc(C)c(=O)n5c4)cnc3O2)nc1` [Compound 80], the IC50 was 13 nM in assay [1] and 22 nM in assay [2].

In the case of `COc1ccc(COc2ncc(Oc3ccc4ncc(N5CCOCC5)c(=O)n4c3)cc2OC)cc1` [Compound 31], the concentration for half-maximal inhibition (IC50) in assay [1] came to 6 nM; in assay [2], 10 nM.

As to `O=c1ccnc2ccc(Oc3cnc4c(c3)OC[C@H](c3ccc(C5CC5)cn3)O4)cn12` [Compound 71], the IC50 was determined as 30 nM in assay [1] and 114 nM in assay [2].

Turning to `Cc1cnc2ccc(Oc3cnc(OCc4ccc(C5CC5)cc4)nc3)cn2c1=O` [Compound 42], the IC50 in assay [1] stood at 13 nM; in assay [2], 78 nM.

Turning to `COc1cc(Oc2ccc3ncc(N)c(=O)n3c2)cnc1OCc1ccc(C)cc1` [Compound 35], the IC50 in assay [1] came to 6 nM; in assay [2] it was 12 nM.

On to `COc1ccc([C@H]2COc3cc(Oc4ccnc(-c5cnn(C)c5)c4)cnc3O2)cc1` [Compound 68], for which the IC50 in assay [1] was 6 nM; in assay [2], 21 nM.

Turning to `COc1cc(Oc2ccc3ncc(N)c(=O)n3c2)cnc1OCc1ccc(C2CC2)cc1` [Compound 22], the values for the half-inhibitory concentration (IC50) in assay [1] and in assay [2] were 12 nM and 9 nM, respectively.

The values above are taken from patent publication US20240092774A1, “HETEROAROMATIC COMPOUNDS AND USES THEREOF” (HUTCHISON MEDIPHARMA LIMITED, priority 2020, published 2024).
